Measured values: ChEMBL document CHEMBL3046455, “Synthesis and pharmacological evaluation of some novel 4-isopropyl thiazole-based sulfonyl derivatives as potent antimicrobial and antitubercular agents” (Med Chem Res, 2013)
Converted amounts (≈) assume the structure as drawn.

How the values were obtained:
Pseudomonas aeruginosa = assay: Antibacterial activity against Pseudomonas aeruginosa ATCC 10145 after 24 hr by broth microdilution method; assay type: functional; settings: ATCC 10145, 24 h
Klebsiella pneumoniae = assay: Antibacterial activity against Klebsiella pneumoniae ATCC 10031 after 24 hr by broth microdilution method; assay type: functional; settings: ATCC 10031, 24 h
Saccharomyces cerevisiae = assay: Antifungal activity against Saccharomyces cerevisiae ATCC 9763 after 24 hr by broth microdilution method; assay type: functional; settings: ATCC 9763, 24 h
Bacillus subtilis = assay: Antibacterial activity against Bacillus subtilis ATCC 60511 after 24 hr by broth microdilution method; assay type: functional; settings: ATCC 60511, 24 h
Enterococcus faecalis = assay: Antibacterial activity against Enterococcus faecalis ATCC 14506 after 24 hr by broth microdilution method; assay type: functional; settings: ATCC 14506, 24 h
Escherichia coli = assay: Antibacterial activity against Escherichia coli ATCC 10536 after 24 hr by broth microdilution method; assay type: functional; settings: ATCC 10536, 24 h
Staphylococcus aureus = assay: Antibacterial activity against Staphylococcus aureus ATCC 11632 after 24 hr by broth microdilution method; assay type: functional; settings: ATCC 11632, 24 h
Aspergillus niger = assay: Antifungal activity against Aspergillus niger ATCC 6275 after 24 hr by broth microdilution method; assay type: functional; settings: ATCC 6275, 24 h
[1] = tested on: Mycobacterium tuberculosis; assay: Antitubercular activity against Mycobacterium tuberculosis H37Rv after 21 days by broth microdilution method; assay type: functional; settings: 504 h
Candida tropicalis = assay: Antifungal activity against Candida tropicalis ATCC 1369 after 24 hr by broth microdilution method; assay type: functional; settings: ATCC 1369, 24 h
A549 = assay: Cytotoxicity against Homo sapiens (human) A549 cells at […] by MTT assay relative to control; assay type: cell-based

SMILES: CC(C)c1csc(-c2nnc(S(=O)(=O)Cc3ccc(Br)cc3F)n2-c2ccccc2)n1
- MIC (Pseudomonas aeruginosa): 16 µg/mL (≈ 30.7 µM)
- MIC (Klebsiella pneumoniae): 16 µg/mL (≈ 30.7 µM)
- MIC (Saccharomyces cerevisiae): 16 µg/mL (≈ 30.7 µM)
- MIC (Bacillus subtilis): 16 µg/mL (≈ 30.7 µM)
- MIC (Enterococcus faecalis): 31.2 µg/mL (≈ 59.9 µM)
- MIC (Escherichia coli): 8 µg/mL (≈ 15.3 µM)
- MIC (Staphylococcus aureus): 31.2 µg/mL (≈ 59.9 µM)
- MIC (Aspergillus niger): 16 µg/mL (≈ 30.7 µM)
- MIC [1]: 8 µg/mL (≈ 15.3 µM)
- MIC (Candida tropicalis): 31.2 µg/mL (≈ 59.9 µM)

SMILES: CC(C)c1csc(-c2nnc(S(=O)(=O)Cc3ccc(Br)cc3F)n2/N=C/c2ccc(Cl)cc2)n1
- MIC (Pseudomonas aeruginosa): 16 µg/mL (≈ 27.4 µM)
- MIC (Klebsiella pneumoniae): 31.2 µg/mL (≈ 53.6 µM)
- MIC (Saccharomyces cerevisiae): 16 µg/mL (≈ 27.4 µM)
- MIC (Bacillus subtilis): 8 µg/mL (≈ 13.7 µM)
- MIC (Enterococcus faecalis): 31.2 µg/mL (≈ 53.6 µM)
- MIC (Escherichia coli): 62.5 µg/mL (≈ 107 µM)
- MIC (Staphylococcus aureus): 31.2 µg/mL (≈ 53.6 µM)
- MIC (Aspergillus niger): 8 µg/mL (≈ 13.7 µM)
- MIC [1]: 8 µg/mL (≈ 13.7 µM)
- MIC (Candida tropicalis): 8 µg/mL (≈ 13.7 µM)

SMILES: CC(C)c1csc(-c2nnc(S(=O)(=O)Cc3ccc(C(F)(F)F)cc3)n2-c2ccccc2)n1
- MIC (Pseudomonas aeruginosa): 16 µg/mL (≈ 32.5 µM)
- MIC (Klebsiella pneumoniae): 16 µg/mL (≈ 32.5 µM)
- MIC (Saccharomyces cerevisiae): 16 µg/mL (≈ 32.5 µM)
- MIC (Bacillus subtilis): 8 µg/mL (≈ 16.2 µM)
- MIC (Enterococcus faecalis): 8 µg/mL (≈ 16.2 µM)
- MIC (Escherichia coli): 16 µg/mL (≈ 32.5 µM)
- MIC (Staphylococcus aureus): 4 µg/mL (≈ 8.12 µM)
- MIC (Aspergillus niger): 16 µg/mL (≈ 32.5 µM)
- MIC [1]: 4 µg/mL (≈ 8.12 µM)
- MIC (Candida tropicalis): 31.2 µg/mL (≈ 63.4 µM)

SMILES: CC(C)c1csc(-c2nnc(S(=O)(=O)Cc3ccc(OC(F)(F)F)cc3)n2-c2ccccc2)n1
- MIC (Pseudomonas aeruginosa): 8 µg/mL (≈ 15.7 µM)
- MIC (Klebsiella pneumoniae): 4 µg/mL (≈ 7.87 µM)
- MIC (Saccharomyces cerevisiae): 16 µg/mL (≈ 31.5 µM)
- MIC (Bacillus subtilis): 8 µg/mL (≈ 15.7 µM)
- Activity (A549): 50%
- MIC (Enterococcus faecalis): 8 µg/mL (≈ 15.7 µM)
- MIC (Escherichia coli): 2 µg/mL (≈ 3.93 µM)
- MIC (Staphylococcus aureus): 31.2 µg/mL (≈ 61.4 µM)
- MIC (Aspergillus niger): 31.2 µg/mL (≈ 61.4 µM)
- MIC [1]: 1 µg/mL (≈ 1.97 µM)
- MIC (Candida tropicalis): 16 µg/mL (≈ 31.5 µM)

SMILES: CC(C)c1csc(-c2nnc(S(=O)(=O)Cc3ccc(Br)cc3F)n2/N=C/c2ccc(F)cc2)n1
- MIC (Pseudomonas aeruginosa): 62.5 µg/mL (≈ 110 µM)
- MIC (Klebsiella pneumoniae): 8 µg/mL (≈ 14.1 µM)
- MIC (Saccharomyces cerevisiae): 31.2 µg/mL (≈ 55.2 µM)
- MIC (Bacillus subtilis): 31.2 µg/mL (≈ 55.2 µM)
- MIC (Enterococcus faecalis): 31.2 µg/mL (≈ 55.2 µM)
- MIC (Escherichia coli): 8 µg/mL (≈ 14.1 µM)
- MIC (Staphylococcus aureus): 16 µg/mL (≈ 28.2 µM)
- MIC (Aspergillus niger): 31.2 µg/mL (≈ 55.2 µM)
- MIC [1]: 16 µg/mL (≈ 28.2 µM)
- MIC (Candida tropicalis): 31.2 µg/mL (≈ 55.2 µM)

SMILES: CC(C)c1csc(-c2nnc(S(=O)(=O)Cc3ccccc3)n2/N=C/c2c(F)cccc2F)n1
- MIC (Pseudomonas aeruginosa): 4 µg/mL (≈ 8.2 µM)
- MIC (Klebsiella pneumoniae): 31.2 µg/mL (≈ 64.1 µM)
- MIC (Saccharomyces cerevisiae): 8 µg/mL (≈ 16.4 µM)
- MIC (Bacillus subtilis): 62.5 µg/mL (≈ 128 µM)
- MIC (Enterococcus faecalis): 8 µg/mL (≈ 16.4 µM)
- MIC (Escherichia coli): 31.2 µg/mL (≈ 64.1 µM)
- MIC (Staphylococcus aureus): 4 µg/mL (≈ 8.2 µM)
- MIC (Aspergillus niger): 8 µg/mL (≈ 16.4 µM)
- MIC [1]: 4 µg/mL (≈ 8.2 µM)
- MIC (Candida tropicalis): 16 µg/mL (≈ 32.8 µM)

SMILES: CC(C)c1csc(-c2nnc(S(=O)(=O)Cc3ccc(Cl)cc3)o2)n1
- MIC (Pseudomonas aeruginosa): 8 µg/mL (≈ 20.8 µM)
- MIC (Klebsiella pneumoniae): 8 µg/mL (≈ 20.8 µM)
- MIC (Saccharomyces cerevisiae): 8 µg/mL (≈ 20.8 µM)
- MIC (Bacillus subtilis): 8 µg/mL (≈ 20.8 µM)
- MIC (Enterococcus faecalis): 31.2 µg/mL (≈ 81.4 µM)
- MIC (Escherichia coli): 4 µg/mL (≈ 10.4 µM)
- MIC (Staphylococcus aureus): 16 µg/mL (≈ 41.7 µM)
- MIC (Aspergillus niger): 16 µg/mL (≈ 41.7 µM)
- MIC [1]: 4 µg/mL (≈ 10.4 µM)
- MIC (Candida tropicalis): 8 µg/mL (≈ 20.8 µM)

SMILES: CC(C)c1csc(-c2nnc(S(=O)(=O)Cc3ccc(Br)cc3)o2)n1
- MIC (Pseudomonas aeruginosa): 8 µg/mL (≈ 18.7 µM)
- MIC (Klebsiella pneumoniae): 8 µg/mL (≈ 18.7 µM)
- MIC (Saccharomyces cerevisiae): 62.5 µg/mL (≈ 146 µM)
- MIC (Bacillus subtilis): 31.2 µg/mL (≈ 73 µM)
- MIC (Enterococcus faecalis): 31.2 µg/mL (≈ 73 µM)
- MIC (Escherichia coli): 4 µg/mL (≈ 9.34 µM)
- MIC (Staphylococcus aureus): 8 µg/mL (≈ 18.7 µM)
- MIC (Aspergillus niger): 31.2 µg/mL (≈ 73 µM)
- MIC [1]: 4 µg/mL (≈ 9.34 µM)
- MIC (Candida tropicalis): 31.2 µg/mL (≈ 73 µM)

SMILES: CC(C)c1csc(-c2nnc(S(=O)(=O)Cc3ccc(C(F)(F)F)cc3)n2/N=C/c2ccc(F)cc2)n1
- MIC (Pseudomonas aeruginosa): 8 µg/mL (≈ 14.9 µM)
- MIC (Klebsiella pneumoniae): 4 µg/mL (≈ 7.44 µM)
- MIC (Saccharomyces cerevisiae): 4 µg/mL (≈ 7.44 µM)
- MIC (Bacillus subtilis): 8 µg/mL (≈ 14.9 µM)
- Activity (A549): Toxic
- MIC (Enterococcus faecalis): 8 µg/mL (≈ 14.9 µM)
- MIC (Escherichia coli): 8 µg/mL (≈ 14.9 µM)
- MIC (Staphylococcus aureus): 4 µg/mL (≈ 7.44 µM)
- MIC (Aspergillus niger): 4 µg/mL (≈ 7.44 µM)
- MIC [1]: 2 µg/mL (≈ 3.72 µM)
- MIC (Candida tropicalis): 16 µg/mL (≈ 29.8 µM)

SMILES: OC(Cn1cncn1)(Cn1cncn1)c1ccc(F)cc1F [FLUCONAZOLE]
- MIC (Saccharomyces cerevisiae): ≤ 1 µg/mL
- MIC (Aspergillus niger): ≤ 1 µg/mL
- MIC (Candida tropicalis): ≤ 1 µg/mL

SMILES: CC(C)c1csc(-c2nnc(S(=O)(=O)Cc3ccccc3C(F)(F)F)o2)n1
- MIC (Pseudomonas aeruginosa): 4 µg/mL (≈ 9.58 µM)
- MIC (Klebsiella pneumoniae): 2 µg/mL (≈ 4.79 µM)
- MIC (Saccharomyces cerevisiae): 8 µg/mL (≈ 19.2 µM)
- MIC (Bacillus subtilis): 31.2 µg/mL (≈ 74.9 µM)
- Activity (A549): 50%
- MIC (Enterococcus faecalis): 16 µg/mL (≈ 38.3 µM)
- MIC (Escherichia coli): 8 µg/mL (≈ 19.2 µM)
- MIC (Staphylococcus aureus): 8 µg/mL (≈ 19.2 µM)
- MIC (Aspergillus niger): 125 µg/mL (≈ 299 µM)
- MIC [1]: 2 µg/mL (≈ 4.79 µM)
- MIC (Candida tropicalis): 31.2 µg/mL (≈ 74.9 µM)

SMILES: CC(C)c1csc(-c2nnc(S(=O)(=O)Cc3cc(Cl)ccc3F)o2)n1
- MIC (Pseudomonas aeruginosa): 4 µg/mL (≈ 9.95 µM)
- MIC (Klebsiella pneumoniae): 4 µg/mL (≈ 9.95 µM)
- MIC (Saccharomyces cerevisiae): 16 µg/mL (≈ 39.8 µM)
- MIC (Bacillus subtilis): 8 µg/mL (≈ 19.9 µM)
- MIC (Enterococcus faecalis): 31.2 µg/mL (≈ 77.8 µM)
- MIC (Escherichia coli): 8 µg/mL (≈ 19.9 µM)
- MIC (Staphylococcus aureus): 8 µg/mL (≈ 19.9 µM)
- MIC (Aspergillus niger): 8 µg/mL (≈ 19.9 µM)
- MIC [1]: 4 µg/mL (≈ 9.95 µM)
- MIC (Candida tropicalis): 8 µg/mL (≈ 19.9 µM)

SMILES: CC(C)c1csc(-c2nnc(S(=O)(=O)Cc3ccccc3)o2)n1
- MIC (Pseudomonas aeruginosa): 8 µg/mL (≈ 22.9 µM)
- MIC (Klebsiella pneumoniae): 8 µg/mL (≈ 22.9 µM)
- MIC (Saccharomyces cerevisiae): 4 µg/mL (≈ 11.4 µM)
- MIC (Bacillus subtilis): 31.2 µg/mL (≈ 89.4 µM)
- MIC (Enterococcus faecalis): 16 µg/mL (≈ 45.8 µM)
- MIC (Escherichia coli): 8 µg/mL (≈ 22.9 µM)
- MIC (Staphylococcus aureus): 62.5 µg/mL (≈ 179 µM)
- MIC (Aspergillus niger): 16 µg/mL (≈ 45.8 µM)
- MIC [1]: 4 µg/mL (≈ 11.4 µM)
- MIC (Candida tropicalis): 8 µg/mL (≈ 22.9 µM)
